Measured values as given in patent US10889606B2, “Biflavone-iron complex, preparation method and application thereof” (NANJING FORESTRY UNIVERSITY, priority 2017, dated 2021).

What was measured:
[1] = Pyrogallol auto-oxidation method, O2^−. free radical scavenging; conditions: Tris-HCl pH 8.20, 25° C., 322 nm, read-out: IC50 to scavenge O2^−. free radical
Protocol: (1) Pyrogallol Auto-Oxidation Method
Determination of auto-oxidation rate V0 of pyrogallol: 2 mL Tris-HCl buffer (pH=8.20) was added to a 10 mL sample tube at 25° C., 100 μL, DMSO was added as a control, after adding 0.8 mL distilled water, 0.2 mL pyrogallol solution having a concentration of 2 mmol·L^−1 was added, the mixture was poured into a cuvette after mixing uniformly, the absorbance at 322 nm was measured with pure water as a blank, the A value was recorded every 10 s for a total of 4 min, linear regression was performed with t as the abscissa, and A as the ordinate, straight line slope thereof is V0, and the measurement was performed for three times to obtain an average value.
The free radical scavenging rate was calculated according to Formula 3. SR(%)=(1−v1/v0)×[…] (Formula 3)

[2] = tested on: herring sperm DNA (fDNA); assay: Interaction with herring sperm DNA (fDNA) by UV-vis spectroscopy, fluorescence spectroscopy and viscosity method; type: binding; conditions: UV-vis, fluorescence (fDNA-EB system), viscosity
Description: UV-vis spectroscopy, fluorescence spectroscopy and viscosity method are used to study the interaction between the Ame/Ame-Fe complex and herring sperm DNA (fDNA) to further reveal the mechanism of antitumor activity, the obtained spectra are shown in FIGS. 7-11. […] Thereby, it can be speculated that the mechanism of antitumor activity of the Ame and its complex may be that Ame or the complex thereof enters the interior of the cell and intercalates with the DNA strand to cause apoptosis. Since the interaction of the complex with DNA is stronger than of the Ame, the antitumor activity thereof is also stronger than of the Ame.

[3] = ABTS method, ABTS^+. free radical scavenging; conditions: read-out: IC50 for scavenging ABTS^+. free radicals, 25° C., 5 min, 730 nm
Protocol: The free radical scavenging abilities of the Ame and the Ame-Fe complex were studied by pyrogallol auto-oxidation method and ABTS method with the following steps:
Within a certain range, the scavenging rate is linear with the concentration. The curve of the scavenging rate and the concentration (c) is plotted in the present invention to obtain a corresponding linear equation, and the maximum half-inhibitory concentration (IC50 value) is calculated.

IC50 [1]: 23.3 µM | IC50 [3]: 20.7 µM
SMILES: O=c1cc(-c2ccc(O)c(-c3c(O)cc(O)c4c(=O)cc(-c5ccc(O)cc5)oc34)c2)oc2cc(O)cc(O)c12 [Ame, amentoflavone]
manner of interaction with fDNA [2]: in the intercalation manner
